± gives the uncertainty stated by the source.
Test: xn = mol fraction of the nth substance listed
Conditions: 101.33 kPa

## CC(CC(C)(C)C)CC(C)(C)CC(C)(C)C (configuration not stated) + CCCCCCCCCCCCCCCC
298.15 K, x2 = 0.0974
  viscosity: 3.252 ± 0.039 mPa·s
298.15 K, x2 = 0.2011
  viscosity: 3.181 ± 0.037 mPa·s
298.15 K, x2 = 0.3015
  viscosity: 3.128 ± 0.035 mPa·s
298.15 K, x2 = 0.3995
  viscosity: 3.09 ± 0.034 mPa·s
298.15 K, x2 = 0.4995
  viscosity: 3.064 ± 0.032 mPa·s
298.15 K, x2 = 0.6002
  viscosity: 3.05 ± 0.031 mPa·s
298.15 K, x2 = 0.7004
  viscosity: 3.045 ± 0.03 mPa·s
298.15 K, x2 = 0.8
  viscosity: 3.049 ± 0.029 mPa·s

## CCCCNCCCC + CCCCCCCCCCO
303.15 K, x1 = 0.0981
  viscosity: 7.771 ± 0.078 mPa·s
303.15 K, x1 = 0.1964
  viscosity: 6.615 ± 0.069 mPa·s
303.15 K, x1 = 0.286
  viscosity: 5.545 ± 0.06 mPa·s
303.15 K, x1 = 0.3857
  viscosity: 4.423 ± 0.05 mPa·s
303.15 K, x1 = 0.4851
  viscosity: 3.439 ± 0.039 mPa·s
303.15 K, x1 = 0.5846
  viscosity: 2.607 ± 0.03 mPa·s
303.15 K, x1 = 0.6877
  viscosity: 1.944 ± 0.023 mPa·s
303.15 K, x1 = 0.7856
  viscosity: 1.445 ± 0.017 mPa·s
303.15 K, x1 = 0.8866
  viscosity: 1.073 ± 0.013 mPa·s
313.15 K, x1 = 0.0981
  viscosity: 5.959 ± 0.064 mPa·s
313.15 K, x1 = 0.1964
  viscosity: 4.985 ± 0.056 mPa·s
313.15 K, x1 = 0.286
  viscosity: 4.15 ± 0.047 mPa·s
313.15 K, x1 = 0.3857
  viscosity: 3.305 ± 0.038 mPa·s
313.15 K, x1 = 0.4851
  viscosity: 2.611 ± 0.03 mPa·s
313.15 K, x1 = 0.5846
  viscosity: 2.021 ± 0.024 mPa·s
313.15 K, x1 = 0.6877
  viscosity: 1.545 ± 0.019 mPa·s
313.15 K, x1 = 0.7856
  viscosity: 1.199 ± 0.015 mPa·s
313.15 K, x1 = 0.8866
  viscosity: 0.9135 ± 0.012 mPa·s

## CCOC(=O)C(=O)OCC + CCCCCCCCCCO
303.15 K, x1 = 0.1042
  viscosity: 6.782 ± 0.037 mPa·s
303.15 K, x1 = 0.1986
  viscosity: 5.372 ± 0.03 mPa·s
303.15 K, x1 = 0.2934
  viscosity: 4.324 ± 0.025 mPa·s
303.15 K, x1 = 0.401
  viscosity: 3.516 ± 0.021 mPa·s
303.15 K, x1 = 0.5111
  viscosity: 2.851 ± 0.017 mPa·s
303.15 K, x1 = 0.5985
  viscosity: 2.488 ± 0.015 mPa·s
303.15 K, x1 = 0.7108
  viscosity: 2.078 ± 0.013 mPa·s
303.15 K, x1 = 0.8081
  viscosity: 1.837 ± 0.011 mPa·s
303.15 K, x1 = 0.8863
  viscosity: 1.691 ± 0.01 mPa·s

## CCCCNCCCC + CCCCCCCCO
303.15 K, x1 = 0.0912
  viscosity: 5.37 ± 0.059 mPa·s
303.15 K, x1 = 0.1863
  viscosity: 4.588 ± 0.051 mPa·s
303.15 K, x1 = 0.2846
  viscosity: 3.829 ± 0.043 mPa·s
303.15 K, x1 = 0.3857
  viscosity: 3.105 ± 0.036 mPa·s
303.15 K, x1 = 0.4878
  viscosity: 2.481 ± 0.029 mPa·s
303.15 K, x1 = 0.5882
  viscosity: 1.979 ± 0.023 mPa·s
303.15 K, x1 = 0.6862
  viscosity: 1.581 ± 0.019 mPa·s
303.15 K, x1 = 0.7892
  viscosity: 1.251 ± 0.015 mPa·s
303.15 K, x1 = 0.8929
  viscosity: 0.9852 ± 0.013 mPa·s
313.15 K, x1 = 0.0912
  viscosity: 3.865 ± 0.044 mPa·s
313.15 K, x1 = 0.1863
  viscosity: 3.336 ± 0.038 mPa·s
313.15 K, x1 = 0.2846
  viscosity: 2.812 ± 0.032 mPa·s
313.15 K, x1 = 0.3857
  viscosity: 2.336 ± 0.027 mPa·s
313.15 K, x1 = 0.4878
  viscosity: 1.921 ± 0.023 mPa·s
313.15 K, x1 = 0.5882
  viscosity: 1.569 ± 0.019 mPa·s
313.15 K, x1 = 0.6862
  viscosity: 1.277 ± 0.016 mPa·s
313.15 K, x1 = 0.7892
  viscosity: 1.026 ± 0.013 mPa·s
313.15 K, x1 = 0.8929
  viscosity: 0.827 ± 0.011 mPa·s

## CCOC(=O)C(=O)OCC + CCCCCCCCO
303.15 K, x1 = 0.0949
  viscosity: 4.702 ± 0.027 mPa·s
303.15 K, x1 = 0.2003
  viscosity: 3.667 ± 0.021 mPa·s
303.15 K, x1 = 0.2883
  viscosity: 3.152 ± 0.019 mPa·s
303.15 K, x1 = 0.4
  viscosity: 2.636 ± 0.016 mPa·s
303.15 K, x1 = 0.5026
  viscosity: 2.296 ± 0.014 mPa·s
303.15 K, x1 = 0.6064
  viscosity: 2.027 ± 0.012 mPa·s
303.15 K, x1 = 0.6984
  viscosity: 1.86 ± 0.011 mPa·s
303.15 K, x1 = 0.7809
  viscosity: 1.74 ± 0.011 mPa·s
303.15 K, x1 = 0.8763
  viscosity: 1.638 ± 0.01 mPa·s

Source: the CheMixHub viscosity set
